Source: PubChem BioAssay AID296 (DTP/NCI, 2004)
Several values for one entry are separate records, joined by “and”; a condition that tells them apart may be missing. Equal entries are not always repeated. Results filed as inconclusive are left out.

Tested on: MX-1 breast xenograft, nude mice, tumor weight T/C
Assay: NCI In Vivo Anticancer Drug Screen. Data for tumor model Human Mammary Carcinoma MX-1 Xenograft (intrarenal inoculation) in NU/NU Swiss (nude) mice
Details: endpoint: mean tumor weight change, higher = larger tumour
Protocol: The antitumor activity of compounds was measured in mice bearing transplantable tumors. Survival or tumor size were measured and the results are expressed as the measurement made in the treated group (T) divided by the measurement made in the vehicle treated control group (C). The tumor model used in this assay is Human Mammary Carcinoma MX-1 Xenograft (intrarenal inoculation) in NU/NU Swiss (nude) mice

[1] = dose: 50.0 mg/kg/injection, schedule: Q01DX010 (sc), vehicle: Klucel (hydroxypropylcellulose) (HPC)
[2] = dose: 100.0 mg/kg/injection, schedule: Q01DX010 (sc), vehicle: Klucel (hydroxypropylcellulose) (HPC)
[3] = dose: 12.5 mg/kg/injection, schedule: Q01DX010 (sc), vehicle: Klucel (hydroxypropylcellulose) (HPC)
[4] = dose: 25.0 mg/kg/injection, schedule: Q01DX010 (sc), vehicle: Klucel (hydroxypropylcellulose) (HPC)
[5] = dose: 300.0 mg/kg/injection, schedule: Q04DX003 (sc), vehicle: saline with Tween-80
[6] = dose: 600.0 mg/kg/injection, schedule: Q04DX003 (sc), vehicle: saline with Tween-80
[7] = dose: 1200.0 mg/kg/injection, schedule: Q04DX003 (sc), vehicle: saline with Tween-80
[8] = dose: 2400.0 mg/kg/injection, schedule: Q04DX003 (sc), vehicle: saline with Tween-80
[9] = dose: 200.0 mg/kg/injection, schedule: Q04DX003 (sc), vehicle: Klucel (hydroxypropylcellulose) (HPC)
[10] = dose: 400.0 mg/kg/injection, schedule: Q04DX003 (sc), vehicle: Klucel (hydroxypropylcellulose) (HPC)
[11] = dose: 100.0 mg/kg/injection, schedule: Q04DX003 (sc), vehicle: water
[12] = dose: 150.0 mg/kg/injection, schedule: Q04DX003 (sc), vehicle: saline with Tween-80

`Cc1cc(N(CCOS(C)(=O)=O)CCOS(C)(=O)=O)ccc1C=Nc1ccc(-c2nc(Cc3ccccc3)sc2C)cc1` was tested, and the T/C [1] was -79 % of control, the T/C [2] was -88 % of control and the T/C (dose: 200.0 mg/kg/injection, schedule: Q01DX010 (sc), vehicle: Klucel (hydroxypropylcellulose) (HPC)) was -87 % of control.

With `N#Cc1cn(C2OC(CO)C(O)C2O)c2ncnc(N)c12` (stereo not given) the T/C (dose: 0.5 mg/kg/injection, schedule: Q01DX010 (sc), vehicle: saline) was 172 % of control.

With `CCCCCNc1ncnc2c(C)[nH]nc12` the T/C (dose: 75.0 mg/kg/injection, schedule: Q04DX003 (ip), vehicle: Klucel (hydroxypropylcellulose) (HPC)) was 80 % of control and the T/C (dose: 150.0 mg/kg/injection, schedule: Q04DX003 (ip), vehicle: Klucel (hydroxypropylcellulose) (HPC)) was 112 % of control.

With `[N-]=[N+]=C1N=CN=C1c1ncn[nH]1` the T/C [3] was 121 % of control and the T/C [4] was 76 % of control.

With `O=CNCO` the T/C (dose: 300.0 mg/kg/injection, schedule: Q01DX010 (sc), vehicle: water) was 111 % of control, the T/C (dose: 600.0 mg/kg/injection, schedule: Q01DX010 (sc), vehicle: water) was 62 % of control and the T/C (dose: 1200.0 mg/kg/injection, schedule: Q01DX010 (sc), vehicle: water) was 37 % of control. For the same compound, the T/C (dose: 2000.0 mg/kg/injection, schedule: Q01DX010 (sc), vehicle: water) was 5 % of control.

With `CCC(=O)Sc1ccccc1C(=O)Nc1ccc(Cl)cc1` the T/C [5] was 63 % of control, the T/C [6] was 75 % of control and the T/C [7] was 58 % of control. For the same compound, the T/C [8] was 69 % of control.

In the case of `CCCCc1ccc(-n2c(C)c(COC(=O)NC)c(COC(=O)NC)c2C)cc1`, the T/C [3] was 114 % of control, the T/C [4] was 84 % of control and the T/C [1] was 34 % of control. For the same compound, the T/C [2] was 77 % of control.

With `NS(=O)(=O)OCCCCCCCOS(N)(=O)=O` the T/C (dose: 150.0 mg/kg/injection, schedule: Q04DX003 (ip), vehicle: saline with Tween-80) was -97 % of control.

In the case of `Cc1c(N)nc([C@H](CC(N)=O)NC[C@H](N)C(N)=O)nc1C(=O)N[C@H](C(=O)N[C@H](C)[C@@H](O)CC(=O)N[C@H](C(=O)NC(O[C@@H]1O[C@@H](C)[C@@H](N)[C@@H](O)[C@H]1O)C(O)c1nc(-c2nc(C(=O)NCCCCN)cs2)cs1)[C@@H](C)O)[C@@H](O[C@@H]1O[C@@H](CO)[C@@H](O)[C@H](O)[C@@H]1O[C@H]1O[C@H](CO)[C@@H](O)[C@H](OC(N)=O)[C@@H]1O)c1c[nH]cn1` (stereo not given in full), the T/C (dose: 4.0 mg/kg/injection, schedule: Q04DX003 (sc), vehicle: saline) was 120 % of control, the T/C (dose: 8.0 mg/kg/injection, schedule: Q04DX003 (sc), vehicle: saline) was 64 % of control and the T/C (dose: 16.0 mg/kg/injection, schedule: Q04DX003 (sc), vehicle: saline) was 64 % of control. The T/C (dose: 32.0 mg/kg/injection, schedule: Q04DX003 (sc), vehicle: saline) was 47 % of control.

`Nc1cc(Cl)c2[nH]cnc2n1` was tested, and the T/C (dose: 200.0 mg/kg/injection, schedule: Q04DX003 (sc), vehicle: water) was 47 % of control, the T/C (dose: 400.0 mg/kg/injection, schedule: Q04DX003 (sc), vehicle: water) was 42 % of control and the T/C (dose: 800.0 mg/kg/injection, schedule: Q04DX003 (sc), vehicle: water) was 55 % of control.

For `BrC1CC(Br)c2c1c1c(c3c2C(Br)CC3Br)C(Br)CC1Br` (stereo not given), the T/C (dose: 300.0 mg/kg/injection, schedule: Q04DX003 (sc), vehicle: water) was 92 % of control, the T/C (dose: 600.0 mg/kg/injection, schedule: Q04DX003 (sc), vehicle: water) was 104 % of control and the T/C (dose: 1200.0 mg/kg/injection, schedule: Q04DX003 (sc), vehicle: water) was 120 % of control. The T/C (dose: 2400.0 mg/kg/injection, schedule: Q04DX003 (sc), vehicle: water) was 50 % of control.

With `CC(=O)NC(CCc1ccc(Cl)c(Cl)c1)c1cccc(O)c(=O)c1` (stereo not given) the T/C (dose: 50.0 mg/kg/injection, schedule: Q04DX003 (sc), vehicle: Klucel (hydroxypropylcellulose) (HPC)) was 95 % of control, the T/C (dose: 100.0 mg/kg/injection, schedule: Q04DX003 (sc), vehicle: Klucel (hydroxypropylcellulose) (HPC)) was 69 % of control and the T/C [9] was 90 % of control. The T/C [10] was 119 % of control.

For `Cc1c(N)nc(C(CC(N)=O)NCC(N)C(N)=O)nc1C(=O)NC(C(=O)NC(C)C(O)C(C)C(=O)NC(C(=O)NCCc1nc(-c2nc(C(=O)NCCCNCCCc3ccccn3)cs2)cs1)C(C)O)C(OC1OC(CO)C(O)C(O)C1OC1OC(CO)C(O)C(OC(N)=O)C1O)c1cnc[nH]1` (stereo not given), the T/C (dose: 9.0 mg/kg/injection, schedule: Q04DX003 (sc), vehicle: water) was 77 % of control, the T/C (dose: 18.0 mg/kg/injection, schedule: Q04DX003 (sc), vehicle: water) was 66 % of control and the T/C (dose: 36.0 mg/kg/injection, schedule: Q04DX003 (sc), vehicle: water) was 75 % of control. The T/C (dose: 72.0 mg/kg/injection, schedule: Q04DX003 (sc), vehicle: water) was 44 % of control.

In the case of `NC(CNC(=O)CBr)C(=O)O` (stereo not given), the T/C (dose: 37.5 mg/kg/injection, schedule: Q04DX003 (sc), vehicle: water) was 53 % of control, the T/C (dose: 75.0 mg/kg/injection, schedule: Q04DX003 (sc), vehicle: water) was 10 % of control and 17 % of control and the T/C [11] was 9 % of control. The T/C (dose: 150.0 mg/kg/injection, schedule: Q04DX003 (sc), vehicle: water) was 8 % of control and 13 % of control.

With `C[C@@H]1C[C@H]2[C@@H]3CCC4=CC(=O)C=C[C@]4(C)[C@@]3(F)[C@@H](O)C[C@]2(C)[C@@]1(O)C(=O)CO` the T/C (dose: 3.13 mg/kg/injection, schedule: Q01DX010 (sc), vehicle: Klucel (hydroxypropylcellulose) (HPC)) was 44 % of control, the T/C (dose: 6.25 mg/kg/injection, schedule: Q01DX010 (sc), vehicle: Klucel (hydroxypropylcellulose) (HPC)) was 28 % of control and the T/C [3] was 35 % of control. The T/C [4] was 33 % of control.

`O=C1NCC(Br)C(=O)N1` (stereo not given) was tested, and the T/C [12] was 100 % of control.

`Cc1ccc(NCCN(C)C)c2c(=O)c3cc(O)ccc3sc12` was tested, and the T/C (dose: 150.0 mg/kg/injection, schedule: Q04DX003 (sc), vehicle: Klucel (hydroxypropylcellulose) (HPC)) was 54 % of control, the T/C (dose: 300.0 mg/kg/injection, schedule: Q04DX003 (sc), vehicle: Klucel (hydroxypropylcellulose) (HPC)) was 62 % of control and the T/C (dose: 600.0 mg/kg/injection, schedule: Q04DX003 (sc), vehicle: Klucel (hydroxypropylcellulose) (HPC)) was 120 % of control. The T/C (dose: 1200.0 mg/kg/injection, schedule: Q04DX003 (sc), vehicle: Klucel (hydroxypropylcellulose) (HPC)) was 75 % of control.

For `CN(C)CCOc1ccc2c(c1)C/C(=C/c1ncc([N+](=O)[O-])n1C)C2=O`, the T/C [5] was 81 % of control, the T/C [6] was 68 % of control and the T/C [7] was 89 % of control. For the same compound, the T/C [8] was 70 % of control.

With `COCCCNC1=C(C#N)C(=O)NC(c2cccc([N+](=O)[O-])c2)S1` (stereo not given) the T/C [5] was 96 % of control, the T/C [6] was 101 % of control and the T/C [7] was 56 % of control. For the same compound, the T/C [8] was 95 % of control.

`CO[C@@H]1[C@H](O)CC[C@]2(CO2)[C@H]1[C@@]1(C)O[C@@H]1CC=C(C)C` was tested, and the T/C [12] was 150 % of control, the T/C [5] was 79 % of control and the T/C [6] was 99 % of control. The T/C [7] was 96 % of control.

With `COc1cc2c(c(OC)c1OC)-c1ccc(OC)c(=O)cc1[C@@H](NC(=O)CCl)CC2` the T/C (dose: 1.25 mg/kg/injection, schedule: Q04DX003 (sc), vehicle: saline with Tween-80) was 90 % of control, the T/C (dose: 2.5 mg/kg/injection, schedule: Q04DX003 (sc), vehicle: saline with Tween-80) was 64 % of control and the T/C (dose: 5.0 mg/kg/injection, schedule: Q04DX003 (sc), vehicle: saline with Tween-80) was 21 % of control. The T/C (dose: 10.0 mg/kg/injection, schedule: Q04DX003 (sc), vehicle: saline with Tween-80) was -92 % of control.

For `COc1cccc2c1C(=O)c1c(O)c3c(c(O)c1C2=O)CC(O)(/C(C)=N/NC(=O)CCCCC(=O)N/N=C(\C)C1(O)Cc2c(O)c4c(c(O)c2C(OC2CC(N)C(O)C(C)O2)C1)C(=O)c1c(OC)cccc1C4=O)CC3OC1CC(N)C(O)C(C)O1` (stereo not given), the T/C (dose: 50.0 mg/kg/injection, schedule: Q04DX003 (sc), vehicle: water) was 62 % of control and the T/C [11] was 2 % of control.

In the case of `CSc1nc(=O)[nH]nc1SCc1ccccc1`, the T/C [9] was 100 % of control, the T/C [10] was 87 % of control and the T/C (dose: 800.0 mg/kg/injection, schedule: Q04DX003 (sc), vehicle: Klucel (hydroxypropylcellulose) (HPC)) was 69 % of control. For the same compound, the T/C (dose: 1600.0 mg/kg/injection, schedule: Q04DX003 (sc), vehicle: Klucel (hydroxypropylcellulose) (HPC)) was 60 % of control.
